In US8329683B2 (Nexgenix Pharmaceuticals, LLC, priority 2006, dated 2012):
Read-outs that look alike come from different tables or passages of the source. Each block holds one compound with its values, some of them ahead of it.

How the values were obtained:
[1] = tested on: HSP90; assay: HSP90 affinity in a competition assay with geldanamycin; assay type: binding
[2] = rcm bond, 14-membered ring, Grubbs II (10 mol%), toluene, 2.0 mM, 80.0 °C
[3] = toluene
[4] = cited from earlier work
[5] = tested on: phospho-Akt; assay: Western blot of phospho-Akt in Nf2-/- mouse Schwann cells; assay type: cell-based; conditions: 0.02 μM, 0.5 μM, 24 hours, dose- and time-dependent
Text: (§1) It has been shown that inhibition of HSP90 function in breast cancer cells causes down-regulation of Akt (Basso et al., 2002, J. Biol. Chem. 277(42): 39858-39866). The inventors of the present invention have determined that phospho-Akt levels are elevated in Nf1−/− mouse Schwann cells, NF2 defient human schwannomas, NF2-deficient meningioma xenografts, NF2-deficient mesothelioma xenografts as compared to wild-type mouse Schwann cells and/or normal human peripheral nerves (reference is made to PCT/US2007/70366 application entitled “Treatment of Neurofibromatosis with Inhibitors of a Signal Transduction Pathway,” filed on Jun. 4, 2007, which is herein incorporated by reference in its entirety). To assess the effect of HSP90 inhibitors on phospho-Akt in NF2 deficient cells, Western blots were prepared from Nf2−/− mouse Schwann cells as an example. The cells were treated with 0.02 μM, 0.5 μM NXD30001 for 24 hours. As control the same cells were treated with vehicle DMSO for 24 hours. […] The loss of phospho-Akt was both dose- and time-dependent.

[6] = tested on: ErbB2; assay: Western blot of ErbB2 in NF2-deficient cells; assay type: cell-based, mouse and human; conditions: NF2-deficient cells (Nf2-/- mouse Schwann, meningioma, mesothelioma); dose- and time-dependent
Text: (§2) It has been shown that inhibition of HSP90 function in breast cancer cells causes down-regulation of Akt (Basso et al., 2002, J. Biol. Chem. 277(42): 39858-39866). The inventors of the present invention have determined that phospho-Akt levels are elevated in Nf1−/− mouse Schwann cells, NF2 defient human schwannomas, NF2-deficient meningioma xenografts, NF2-deficient mesothelioma xenografts as compared to wild-type mouse Schwann cells and/or normal human peripheral nerves (reference is made to PCT/US2007/70366 application entitled “Treatment of Neurofibromatosis with Inhibitors of a Signal Transduction Pathway,” filed on Jun. 4, 2007, which is herein incorporated by reference in its entirety). To assess the effect of HSP90 inhibitors on phospho-Akt in NF2 deficient cells, Western blots were prepared from Nf2−/− mouse Schwann cells as an example. The cells were treated with 0.02 μM, 0.5 μM NXD30001 for 24 hours. […]
(§3) To assess the effect of the compounds of the present invention on ErbB2 and c-Raf in NF2-deficient cells, Western blots were prepared from various NF2-deficient cells, including Nf2−/− mouse Schwann cells, NF2-deficient meningioma cells, and NF2-deficient mesothelioma cells. […] The inventors of the present invention have determined that treatment of NF2-deficient cells with NXD30001 caused a decline of both ErbB2 and c-Raf levels (FIG. 1A). […]

[7] = tested on: c-Raf; assay: Western blot of c-Raf in NF2-deficient cells; assay type: cell-based, mouse and human; conditions: NF2-deficient cells (Nf2-/- mouse Schwann, meningioma, mesothelioma); dose- and time-dependent
Text: as §2, §3

[8] = tested on: HSP70; assay: Western blot of HSP70 in NF2-deficient cells; assay type: cell-based, mouse and human; conditions: dose-dependent
Text: as §1
To assess the effect of the compounds of the present invention on HSP70 in NF2-deficient cells, Western blots were prepared from various NF2-deficient cells, including […], NF2-deficient schwannoma cells, NF2-deficient meningioma cells, and NF2-deficient mesothelioma cells. […]

[9] = tested on: Akt; assay: Immunoblot of client protein degradation in ST88-14 MPNST cells; assay type: cell-based, human; conditions: ST88-14 cells, 24 hr treatment, 8-1000 nM; read-out: IC50 of induced degradation of Akt
Method: (§4) Ras-Raf-Mek-Erk1/2 pathway is activated due to the loss of NF1 in these cells. In addition, EGFR is overexpressed in a number of NF1-deficient human and mouse cells. Human malignant peripheral nerve sheath tumor (MPNST) cell ST88-14 was treated with increasing concentration (8-1000 nM) of NXD30001 for 24 hr. Cells were lysed and clarified lysates were subjected SDS-PAGE, followed by immunoblot analysis using indicated antibodies. […] Equal lysate protein loading is shown by actin immunoblot.

[10] = tested on: Cdk4; assay: as above; assay type: cell-based, human; conditions: ST88-14 cells, 24 hr treatment, 8-1000 nM; read-out: IC50 of induced degradation of Cdk4
Method: as §4

[11] = tested on: EGFR; assay: as above; assay type: cell-based, human; conditions: ST88-14 cells, 24 hr treatment, 8-1000 nM; read-out: IC50 of induced degradation of EGFR
Method: as §4

[12] = tested on: c-Raf; assay: as above; assay type: cell-based, human; conditions: ST88-14 cells, 24 hr treatment, 8-1000 nM; read-out: IC50 of induced degradation of c-Raf
Method: as §4

[13] = tested on: NF1- and NF2-deficient human and mouse cells; assay: Cell proliferation assay (ATPlite); assay type: cell-based; conditions: 3 days culture; IC50 values only in FIG. 3
Method: Inhibitors of HSP90 function is assayed for the ability to decrease the number of NF2 deficient tumor cells in a tumor, i.e., shrink a tumor, or reduce the proliferation of NF2 deficient tumor cells. The ability of inhibitors to decrease the number of NF2 deficient tumor cells in a sample or reduce proliferation of NF2 deficient tumor cells is assessed using a variety of methods known in the art. A small library of compounds of the present invention (total 14 oxime compounds) were assayed for inhibition of proliferation of NF1- and NF2-deficient cells. Cells used are Nf2−/− mouse embryonic stem cell (MESC), NF2-deficient human SF1335 meningioma cells, NF2-deficient HEI193 schwanoma cells, NF2-deficient BAR and RAV mesothelioma cells, NF2-plus BLA mesothelioma cells, and NF1-deficient human malignant peripheral nerve sheath tumor (MPNST) cells. Appropriate number of cells that can reach ˜70% confluence in 3 days (2000-6000 cells/well) were plated in 96-well plates. Various concentrations of each compound were added to the growing media and the cells were then cultured for 3 days. A positive control compound (17-AAG) and a vehicle (DMSO) control were included with each assay. […] Viable cells were measured by detecting luminescence generated from reaction of ATPlite solution and the ATP in the cells.

SMILES: C[C@@H]1CC2O[C@@H]2CC/C=C/C(=O)Cc2c(Cl)c(O)cc(O)c2C(=O)O1 (stereo partly shown) [pochonin A]
IC50 [1]: 90 nM

IC50 [1]: 80 nM
SMILES: C[C@@H]1C/C=C/CC/C=C/C(=O)Cc2c(Cl)c(O)cc(O)c2C(=O)O1 [pochonin D]

SMILES: CCOCOc1cc2c(c(OCOCC)c1)C(=O)OC(C)CC=CCCC=CC(=O)C2 (stereo not shown)
ring closure, isolated yield ([2]; 2 steps): 40%

SMILES: CCOCOc1cc(OCOCC)c2c(c1Cl)CC(=O)C=CCCC=CC[C@@H](C)OC2=O
ring closure, yield of all isomers ([3]; from C=CCCC=CC(=O)Cc1c(Cl)c(OCOCC)cc(OCOCC)c1C(=O)O[C@H](C)CC=C, rcm bond, Grubbs II, 2.0 mM, 80.0 °C): 94%

SMILES: CCOCOc1cc(OCOCC)c2c(c1Cl)CC(=NOCC(=O)N1CCCCC1)C=CCCC=CCCOC2=O
ring closure, yield of all isomers ([3]; from CCOCOc1cc(OCOCC)c(C(=O)O)c(CC(C=CCCC=CCCO)=NOCC(=O)N2CCCCC2)c1Cl, ester bond, PPh3/DIAD, 30.9 mM, 23.0 °C, 5.0 h): 60%

SMILES: C[C@@H]1C[C@H]2O[C@@H]2/C=C\C=C\C(=O)Cc2c(Cl)c(O)cc(O)c2C(=O)O1 [radicicol, Radicicol, reference compound]
in vivo anti-tumor activity [4]: no in vivo anti-tumor activity

SMILES: C[C@@H]1CC=CCC/C=C/C(=O)Cc2c(Cl)c(O[Si](C)(C)C(C)(C)C)cc(O[Si](C)(C)C(C)(C)C)c2C(=O)O1
ring closure, yield of all isomers ([3]; from C=CCC/C=C/C(=O)Cc1c(Cl)c(O[Si](C)(C)C(C)(C)C)cc(O[Si](C)(C)C(C)(C)C)c1C(=O)O[C@H](C)CC=C, rcm bond, Grubbs II, 2.0 mM, 80.0 °C, 12.0 h): 87%

SMILES: CCOCOc1cc(OCOCC)c2c(c1Cl)CC(=O)C=CCCC=CCC(C)OC2=O (stereo not shown)
ring closure, isolated yield [2]: 94%

SMILES: C[C@@H]1CC=CCC/C=C/C(=O)Cc2c(Cl)c(OCOCC[Si](C)(C)C)cc(OCOCC[Si](C)(C)C)c2C(=O)O1
ring closure, yield of all isomers ([3]; from C=CCC/C=C/C(=O)Cc1c(Cl)c(OCOCC[Si](C)(C)C)cc(OCOCC[Si](C)(C)C)c1C(=O)O[C@H](C)CC=C, rcm bond, Grubbs II, 2.0 mM, 80.0 °C, 12.0 h): 87%

IC50 [9]: ~100 nM
IC50 [10]: ~100 nM
IC50 [11]: ~100 nM
IC50 [12]: ~100 nM
SMILES: O=C1OCC/C=C/CC/C=C/C(=N/OCC(=O)N2CCCCC2)Cc2c(Cl)c(O)cc(O)c21 [NXD30001]
phospho-Akt levels [5]: decline of phospho-Akt levels
ErbB2 levels [6]: decline
c-Raf levels [7]: decline
HSP70 protein level [8]: upregulation of HSP70
inhibition of cell proliferation [13]: Inhibit Proliferation

SMILES: CCOCOc1cc2c(c(OCOCC)c1)C(=O)O[C@H](C)CC=CCCC=CC(=O)C2
ring closure, yield of all isomers ([3]; from C=CCCC=CC(=O)Cc1cc(OCOCC)cc(OCOCC)c1C(=O)O[C@H](C)CC=C, rcm bond, Grubbs II, 2.0 mM, 80.0 °C, 2 steps): 40%
